Read-outs that look alike come from different tables or passages of the source.
Experiments:
[1] = MONACRA O-demethylation by monkey liver microsomes, FA-AAA formaldehyde assay; format: in vitro ADME, cynomolgus monkey (Macaca fascicularis); conditions: cynomolgus monkey, liver microsomes, MLM, FA assay, 20-min incubation at 30°C
Text: (§1) To probe if MONACRA can be metabolized to hydroxy-naphthyl acrylic acid (HONACRA) by liver microsomes, we utilized our high-throughput fluorimetric assay of formed formaldehyde with acetoacetanylide (FA-AAA assay, [34]). In our initial experiments, we used cynomolgus monkey (Macaca fascicularis) liver microsomes (MLM).
(§2) Figure 3: O-demethylation of 3-(6-methoxynaphthalen-2-yl)acrylic acid (MONACRA) by monkey liver microsomes (MLM). […] Panel B exemplifies the substrate saturation profile of MONACRA demethylation by MLM (0.98 mg/ml) determined by formed formaldehyde with acetoacetanylide (FA-AAA) assay with 20-min incubation at 30°C. The datasets shown in the figures represent averages of the results of two individual experiments, and the error bars indicate the standard deviations.
(§3) MONACRA demethylation was monitored by quantifying the amount of formed formaldehyde using a high-throughput fluorimetric assay based on the Hantzsch reaction with acetoacetanilide. The plates were prepared as described above. The assays were executed as described earlier, except for monitoring the formation of DPDL by the spectra of its emission with excitation at 395 nm instead of the spectra of excitation, as it was described earlier. This modification of the assay procedure was done because of an ample overlap of the spectra of excitation of MONACRA and HONACRA with that of DPDL.

[2] = system: monkey liver microsomes (MLM); test: as above; format: in vitro ADME, cynomolgus monkey (Macaca fascicularis); conditions: sum of two Michaelis–Menten components
Text: as §1, §2, §3

[3] = target: T1, CYP4A11 (Homo sapiens, UniProt Q02928); test: MONACRA demethylation by recombinant CYP4A11 in Supersomes, high-throughput fluorimetric assay; format: biochemical; parameters: purchased Gentest (Huntsville, AL), now a part of Discovery Life Sciences lot 2402280; host or cells: insect cells, recombinant baculovirus; conditions: Michaelis–Menten fit, ± = confidence interval P=0.05
T1 sequence (Q02928 5-519): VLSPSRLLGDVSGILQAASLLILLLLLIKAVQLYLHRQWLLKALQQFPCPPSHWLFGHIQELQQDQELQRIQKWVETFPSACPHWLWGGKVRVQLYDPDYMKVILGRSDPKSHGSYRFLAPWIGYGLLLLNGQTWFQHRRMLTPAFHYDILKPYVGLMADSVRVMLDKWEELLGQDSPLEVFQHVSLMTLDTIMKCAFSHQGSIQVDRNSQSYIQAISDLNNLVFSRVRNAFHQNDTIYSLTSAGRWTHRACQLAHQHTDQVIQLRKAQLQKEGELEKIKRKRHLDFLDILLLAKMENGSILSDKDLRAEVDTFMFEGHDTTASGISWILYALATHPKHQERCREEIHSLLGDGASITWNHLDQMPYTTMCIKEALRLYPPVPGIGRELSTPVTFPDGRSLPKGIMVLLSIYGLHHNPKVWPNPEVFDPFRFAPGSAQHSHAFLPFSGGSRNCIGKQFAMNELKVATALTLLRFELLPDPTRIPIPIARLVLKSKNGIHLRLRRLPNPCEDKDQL
Procedure: Based on these observations, we developed a high-throughput automated assay applicable for studying SSPs of MONACRA metabolism by microsomal P450 enzymes. In this procedure, the incubation mixtures containing an NADPH-generating system and various substrate concentrations are placed in a multiwell plate and preincubated at 30°C in a thermostated shaker. The reaction is started by adding microsomal suspension to the final concentration of 0.3–1 mg/ml of microsomal protein or 0.02–0.1 µM of recombinant P450 enzymes in Supersomes. Following the incubation for 20 min at 30°C, the reaction is quenched by adding trichloroacetic acid (final concentration […]). After supplementing the wells with Na-glycine buffer (pH 10.4, final concentration 2.1 M), the plates are subjected to scanning the fluorescence spectra with excitation at 375 nm. This assay, which is described in detail in Materials and Methods, allows reliable detection of the concentrations of HONACRA as low as 0.1 µM.
We used the high-throughput activity assay described above to probe MONACRA metabolism by 16 human microsomal P450 enzymes, namely CYP1A2, CYP2A6, CYP2B6, CYP2C8, CYP2C9, CYP2C19, CYP2D6, CYP2E1, CYP2J2, CYP3A4, CYP3A5, CYP4A11, CYP4F2, CYP4F3A, CYP4F3B, and CYP4F12. […]

For `COc1ccc2cc(C=CC(=O)O)ccc2c1` [MONACRA, 3-(6-methoxynaphthalen-2-yl)acrylic acid], the Km at 20 min ([1]; read-out: KM, first of two Michaelis–Menten components) was 28.4 µM, the Km at 20 min ([1]; read-out: KM, second of two Michaelis–Menten components) was 260 µM and the “total Vmax” value [2] was 17.2 mol FA per mol of NADPH-cytochrome P450 reductase (CPR) per minute. The Vmax [3] was 66.8 ± 17.5 min⁻¹.

— publication PMC12191924, “A new naphthalene-based fluorogenic substrate for cytochrome P450 4A11” (Biochemical Journal, 2025)
